From US20240261294A1, “METHOD FOR TREATING IDH INHIBITOR-RESISTANT SUBJECTS” (Eli Lilly and Company, priority 2021, published 2024) come the findings set out here.

The IC50 is the midpoint of a concentration-inhibition curve.

The test deals with T1, IDH2 R140Q + Q316E trans (Homo sapiens, UniProt P48735, Q316E/R140Q).
T1 construct: expressed in transfected cells; host or cells: U-87 MG
T1 sequence (P48735 40-452 R140Q): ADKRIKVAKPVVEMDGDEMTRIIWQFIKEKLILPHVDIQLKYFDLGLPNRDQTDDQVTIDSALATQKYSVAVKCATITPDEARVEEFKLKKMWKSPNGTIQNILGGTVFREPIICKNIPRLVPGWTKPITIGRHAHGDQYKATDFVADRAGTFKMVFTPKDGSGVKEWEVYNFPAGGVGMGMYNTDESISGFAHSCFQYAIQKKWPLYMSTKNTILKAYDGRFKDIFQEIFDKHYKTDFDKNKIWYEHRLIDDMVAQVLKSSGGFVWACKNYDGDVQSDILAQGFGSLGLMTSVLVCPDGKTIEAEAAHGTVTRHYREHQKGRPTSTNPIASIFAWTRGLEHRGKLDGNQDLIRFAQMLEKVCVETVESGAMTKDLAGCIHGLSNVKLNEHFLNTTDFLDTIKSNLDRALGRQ
T1 sequence (P48735 40-452 Q316E): T1 sequence (P48735 40-452 R140Q) with Q101R, Q277E
The test is described as follows: Inhibition of 2-HG production in IDH2 mutant U-87 MG cells. The test is classed as cell-based.

Residue numbers refer to the chain shown, from its start. Where two headings read alike, the source gives them in different places.

`C=CC(=O)N1CCN([C@@H](CC2CC2)c2ccc([C@H](C)Nc3ncc4c(n3)N(CC)C(=O)OC4)cc2)CC1` [Compound A, 7-[[(1S)-1-[4-[(1S)-2-cyclopropyl-1-(4-prop-2-enoylpiperazin-1-yl)ethyl]phenyl]ethyl]amino]-1-ethyl-4H-pyrimido[4,5-d][1,3]oxazin-2-one]: the IC50 by setting is: (IDH2 R140Q + Q316E trans, 72 hours incubation, 12.5K cells/well, 150 μl media/well, read-out: IC50, inhibition of 2-HG production) 5.84 nM; (IDH2 R140Q_Q316E trans, 16 hours incubation, 50K cells/well, 100 μl media/well, read-out: Relative IC50 (nM) Mean, inhibition of 2-HG production) 23 nM.
